In ChEMBL document CHEMBL1139874, “New diphenylacetylenes as probes for positron emission tomographic imaging of amyloid plaques” (J Med Chem, 2007):
Values belong to the compound of their own block, whether it stands above or below them.

Experiments:
[1] = molecular target: Amyloid-beta precursor protein (Homo sapiens, UniProt P05067); assay: Displacement of [125I]IMPY from human beta amyloid plaque in brain homogenates; assay type: tissue-based
Liver [2] = assay: Biodistribution in ICR mouse liver at 5 to 10 uCi, iv after 2 hrs; assay type: ADME, organism-based; settings: in vivo
Zone of skin [3] = assay: Biodistribution in ICR mouse skin at 5 to 10 uCi, iv after 2 hrs; assay type: ADME, organism-based; settings: in vivo
Brain [4] = assay: Biodistribution in ICR mouse brain at 5 to 10 uCi, iv after 2 hrs; assay type: ADME, organism-based; settings: in vivo
Bone [5] = assay: Biodistribution in ICR mouse bone at 5 to 10 uCi, iv after 2 hrs; assay type: ADME, organism-based, Bone element; settings: in vivo
[6] = Partition coefficient, log P at pH 7.4; assay type: physicochemical; settings: octanol/water
Blood [7] = assay: Biodistribution in ICR mouse blood at 5 to 10 uCi, iv after 2 mins; assay type: ADME, organism-based; settings: in vivo
Heart [8] = assay: Biodistribution in ICR mouse heart at 5 to 10 uCi, iv after 2 mins; assay type: ADME, organism-based; settings: in vivo
Muscle tissue [9] = assay: Biodistribution in ICR mouse muscle at 5 to 10 uCi, iv after 2 mins; assay type: ADME, organism-based; settings: in vivo
Lung [10] = assay: Biodistribution in ICR mouse lung at 5 to 10 uCi, iv after 2 mins; assay type: ADME, organism-based; settings: in vivo
Kidney [11] = assay: Biodistribution in ICR mouse kidney at 5 to 10 uCi, iv after 2 mins; assay type: ADME, organism-based; settings: in vivo
Spleen [12] = assay: Biodistribution in ICR mouse spleen at 5 to 10 uCi, iv after 2 mins; assay type: ADME, organism-based; settings: in vivo
Liver [13] = assay: Biodistribution in ICR mouse liver at 5 to 10 uCi, iv after 2 mins; assay type: ADME, organism-based; settings: in vivo
Zone of skin [14] = assay: Biodistribution in ICR mouse skin at 5 to 10 uCi, iv after 2 mins; assay type: ADME, organism-based; settings: in vivo
Brain [15] = assay: Biodistribution in ICR mouse brain at 5 to 10 uCi, iv after 2 mins; assay type: ADME, organism-based; settings: in vivo
Bone [16] = assay: Biodistribution in ICR mouse bone at 5 to 10 uCi, iv after 2 mins; assay type: ADME, organism-based, Bone element; settings: in vivo
Blood [17] = assay: Biodistribution in ICR mouse blood at 5 to 10 uCi, iv after 30 mins; assay type: ADME, organism-based; settings: in vivo, 0.5 h
Heart [18] = assay: Biodistribution in ICR mouse heart at 5 to 10 uCi, iv after 30 mins; assay type: ADME, organism-based; settings: in vivo, 0.5 h
Muscle tissue [19] = assay: Biodistribution in ICR mouse muscle at 5 to 10 uCi, iv after 30 mins; assay type: ADME, organism-based; settings: in vivo, 0.5 h
Lung [20] = assay: Biodistribution in ICR mouse lung at 5 to 10 uCi, iv after 30 mins; assay type: ADME, organism-based; settings: in vivo, 0.5 h
Kidney [21] = assay: Biodistribution in ICR mouse kidney at 5 to 10 uCi, iv after 30 mins; assay type: ADME, organism-based; settings: in vivo, 0.5 h
Spleen [22] = assay: Biodistribution in ICR mouse spleen at 5 to 10 uCi, iv after 30 mins; assay type: ADME, organism-based; settings: in vivo, 0.5 h
Liver [23] = assay: Biodistribution in ICR mouse liver at 5 to 10 uCi, iv after 30 mins; assay type: ADME, organism-based; settings: in vivo, 0.5 h
Zone of skin [24] = assay: Biodistribution in ICR mouse skin at 5 to 10 uCi, iv after 30 mins; assay type: ADME, organism-based; settings: in vivo, 0.5 h
Brain [25] = assay: Biodistribution in ICR mouse brain at 5 to 10 uCi, iv after 30 mins; assay type: ADME, organism-based; settings: in vivo, 0.5 h
Bone [26] = assay: Biodistribution in ICR mouse bone at 5 to 10 uCi, iv after 30 mins; assay type: ADME, organism-based, Bone element; settings: in vivo, 0.5 h
Blood [27] = assay: Biodistribution in ICR mouse blood at 5 to 10 uCi, iv after 1 hr; assay type: ADME, organism-based; settings: in vivo
Heart [28] = assay: Biodistribution in ICR mouse heart at 5 to 10 uCi, iv after 1 hr; assay type: ADME, organism-based; settings: in vivo
Muscle tissue [29] = assay: Biodistribution in ICR mouse muscle at 5 to 10 uCi, iv after 1 hr; assay type: ADME, organism-based; settings: in vivo
Lung [30] = assay: Biodistribution in ICR mouse lung at 5 to 10 uCi, iv after 1 hr; assay type: ADME, organism-based; settings: in vivo
Kidney [31] = assay: Biodistribution in ICR mouse kidney at 5 to 10 uCi, iv after 1 hr; assay type: ADME, organism-based; settings: in vivo
Spleen [32] = assay: Biodistribution in ICR mouse spleen at 5 to 10 uCi, iv after 1 hr; assay type: ADME, organism-based; settings: in vivo
Liver [33] = assay: Biodistribution in ICR mouse liver at 5 to 10 uCi, iv after 1 hr; assay type: ADME, organism-based; settings: in vivo
Zone of skin [34] = assay: Biodistribution in ICR mouse skin at 5 to 10 uCi, iv after 1 hr; assay type: ADME, organism-based; settings: in vivo
Brain [35] = assay: Biodistribution in ICR mouse brain at 5 to 10 uCi, iv after 1 hr; assay type: ADME, organism-based; settings: in vivo
Bone [36] = assay: Biodistribution in ICR mouse bone at 5 to 10 uCi, iv after 1 hr; assay type: ADME, organism-based, Bone element; settings: in vivo
Blood [37] = assay: Biodistribution in ICR mouse blood at 5 to 10 uCi, iv after 2 hrs; assay type: ADME, organism-based; settings: in vivo
Heart [38] = assay: Biodistribution in ICR mouse heart at 5 to 10 uCi, iv after 2 hrs; assay type: ADME, organism-based; settings: in vivo
Muscle tissue [39] = assay: Biodistribution in ICR mouse muscle at 5 to 10 uCi, iv after 2 hrs; assay type: ADME, organism-based; settings: in vivo
Lung [40] = assay: Biodistribution in ICR mouse lung at 5 to 10 uCi, iv after 2 hrs; assay type: ADME, organism-based; settings: in vivo
Kidney [41] = assay: Biodistribution in ICR mouse kidney at 5 to 10 uCi, iv after 2 hrs; assay type: ADME, organism-based; settings: in vivo
Spleen [42] = assay: Biodistribution in ICR mouse spleen at 5 to 10 uCi, iv after 2 hrs; assay type: ADME, organism-based; settings: in vivo

Sequence of Amyloid-beta precursor protein (P05067 whole entry): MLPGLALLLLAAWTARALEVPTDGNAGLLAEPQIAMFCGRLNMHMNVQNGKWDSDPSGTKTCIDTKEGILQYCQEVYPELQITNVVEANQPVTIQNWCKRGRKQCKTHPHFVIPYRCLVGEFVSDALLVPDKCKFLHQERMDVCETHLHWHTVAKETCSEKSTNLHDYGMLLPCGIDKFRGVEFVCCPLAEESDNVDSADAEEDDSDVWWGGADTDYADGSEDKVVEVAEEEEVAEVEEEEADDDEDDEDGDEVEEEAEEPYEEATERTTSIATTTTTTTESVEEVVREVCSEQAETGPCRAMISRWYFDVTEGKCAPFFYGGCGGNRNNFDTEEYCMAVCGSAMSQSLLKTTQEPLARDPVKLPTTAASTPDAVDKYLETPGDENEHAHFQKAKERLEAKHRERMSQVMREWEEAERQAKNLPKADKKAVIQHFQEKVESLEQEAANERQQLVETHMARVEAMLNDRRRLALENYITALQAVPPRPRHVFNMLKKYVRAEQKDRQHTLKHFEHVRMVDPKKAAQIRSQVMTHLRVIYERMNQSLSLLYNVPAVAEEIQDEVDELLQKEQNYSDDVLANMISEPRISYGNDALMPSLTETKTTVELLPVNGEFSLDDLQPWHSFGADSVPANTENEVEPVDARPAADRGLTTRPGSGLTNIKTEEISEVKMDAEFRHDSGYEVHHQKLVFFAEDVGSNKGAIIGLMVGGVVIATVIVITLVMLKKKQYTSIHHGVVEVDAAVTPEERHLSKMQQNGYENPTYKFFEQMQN

Structure (SMILES): COc1ccc(C#Cc2ccc(N)cc2)cc1
- Ki [1]: 2.9 nM

Structure (SMILES): CN(C)c1ccc(C#Cc2ccc(OCCOCCOCCF)cc2)cc1
- Ki [1]: 2.9 nM

Structure (SMILES): Nc1ccc(C#Cc2ccc(OCCOCCOCCF)cc2)cc1
- Ki [1]: 21.5 nM

Structure (SMILES): CN(C)c1ccc(C#Cc2ccc(OCCOCCF)cc2)cc1
- Ki [1]: 5 nM

Structure (SMILES): CNc1ccc(C#Cc2ccc(OCCOCCO)cc2)cc1
- Ki [1]: 3.1 nM

Structure (SMILES): CNc1ccc(C#Cc2ccc(OCCOCCOCCO)cc2)cc1
- Ki [1]: 4.5 nM

Next, values leading:

- Drug uptake (Liver [2]): 6.58 % ID/g
- Drug uptake (Zone of skin [3]): 0.68 % ID/g
- Drug uptake (Brain [4]): 0.42 % ID/g
- Drug uptake (Bone [5]): 0.7 % ID/g
- logD [6]: 3.18
- Drug uptake (Blood [7]): 5.72 % ID/g
- Drug uptake (Heart [8]): 9.97 % ID/g
- Drug uptake (Muscle tissue [9]): 0.79 % ID/g
- Drug uptake (Lung [10]): 8.38 % ID/g
- Drug uptake (Kidney [11]): 12.4 % ID/g
- Drug uptake (Spleen [12]): 4.61 % ID/g
- Drug uptake (Liver [13]): 23.2 % ID/g
- Drug uptake (Zone of skin [14]): 0.68 % ID/g
- Drug uptake (Brain [15]): 6.78 % ID/g
- Drug uptake (Bone [16]): 1.51 % ID/g
- Drug uptake (Blood [17]): 2.97 % ID/g
- Drug uptake (Heart [18]): 1.49 % ID/g
- Drug uptake (Muscle tissue [19]): 0.67 % ID/g
- Drug uptake (Lung [20]): 2.26 % ID/g
- Drug uptake (Kidney [21]): 2.68 % ID/g
- Drug uptake (Spleen [22]): 1.39 % ID/g
- Drug uptake (Liver [23]): 13.8 % ID/g
- Drug uptake (Zone of skin [24]): 1.41 % ID/g
- Drug uptake (Brain [25]): 1.57 % ID/g
- Drug uptake (Bone [26]): 0.64 % ID/g
- Drug uptake (Blood [27]): 2.51 % ID/g
- Drug uptake (Heart [28]): 1.04 % ID/g
- Drug uptake (Muscle tissue [29]): 0.51 % ID/g
- Drug uptake (Lung [30]): 1.26 % ID/g
- Drug uptake (Kidney [31]): 2.53 % ID/g
- Drug uptake (Spleen [32]): 1.13 % ID/g
- Drug uptake (Liver [33]): 8.13 % ID/g
- Drug uptake (Zone of skin [34]): 1.28 % ID/g
- Drug uptake (Brain [35]): 0.77 % ID/g
- Drug uptake (Bone [36]): 0.56 % ID/g
- Drug uptake (Blood [37]): 2.35 % ID/g
- Drug uptake (Heart [38]): 0.84 % ID/g
- Drug uptake (Muscle tissue [39]): 0.42 % ID/g
- Drug uptake (Lung [40]): 1.47 % ID/g
- Drug uptake (Kidney [41]): 2.02 % ID/g
- Drug uptake (Spleen [42]): 1.17 % ID/g
Structure (SMILES): CN(C)c1ccc(C#Cc2ccc(OCCOCCOCC[18F])cc2)cc1

- Ki [1]: 1.9 nM
Structure (SMILES): CNc1ccc(C#Cc2ccc(OCCOCCOCCF)cc2)cc1

- Ki [1]: 1.2 nM
Structure (SMILES): CNc1ccc(C#Cc2ccc(OCCOCCF)cc2)cc1

- Ki [1]: 76 nM
Structure (SMILES): Nc1ccc(C#Cc2ccc(N)cc2)cc1

- Ki [1]: 16.5 nM
Structure (SMILES): Oc1ccc(C#Cc2ccc(OCCOCCOCCF)cc2)cc1
